Test results reported in patent publication US20260132127A1, “NOVEL SPIRO COMPOUND” (MITSUBISHI TANABE PHARMA CORPORATION, priority 2021, published 2026).

Biological target: T1, human TRH-DE (Homo sapiens, UniProt Q9UKU6)
T1 construct: expressed in transfected cells; host or cells: Expi 293 cells (transient expression), membrane fraction
T1 sequence (Q9UKU6 1-1069): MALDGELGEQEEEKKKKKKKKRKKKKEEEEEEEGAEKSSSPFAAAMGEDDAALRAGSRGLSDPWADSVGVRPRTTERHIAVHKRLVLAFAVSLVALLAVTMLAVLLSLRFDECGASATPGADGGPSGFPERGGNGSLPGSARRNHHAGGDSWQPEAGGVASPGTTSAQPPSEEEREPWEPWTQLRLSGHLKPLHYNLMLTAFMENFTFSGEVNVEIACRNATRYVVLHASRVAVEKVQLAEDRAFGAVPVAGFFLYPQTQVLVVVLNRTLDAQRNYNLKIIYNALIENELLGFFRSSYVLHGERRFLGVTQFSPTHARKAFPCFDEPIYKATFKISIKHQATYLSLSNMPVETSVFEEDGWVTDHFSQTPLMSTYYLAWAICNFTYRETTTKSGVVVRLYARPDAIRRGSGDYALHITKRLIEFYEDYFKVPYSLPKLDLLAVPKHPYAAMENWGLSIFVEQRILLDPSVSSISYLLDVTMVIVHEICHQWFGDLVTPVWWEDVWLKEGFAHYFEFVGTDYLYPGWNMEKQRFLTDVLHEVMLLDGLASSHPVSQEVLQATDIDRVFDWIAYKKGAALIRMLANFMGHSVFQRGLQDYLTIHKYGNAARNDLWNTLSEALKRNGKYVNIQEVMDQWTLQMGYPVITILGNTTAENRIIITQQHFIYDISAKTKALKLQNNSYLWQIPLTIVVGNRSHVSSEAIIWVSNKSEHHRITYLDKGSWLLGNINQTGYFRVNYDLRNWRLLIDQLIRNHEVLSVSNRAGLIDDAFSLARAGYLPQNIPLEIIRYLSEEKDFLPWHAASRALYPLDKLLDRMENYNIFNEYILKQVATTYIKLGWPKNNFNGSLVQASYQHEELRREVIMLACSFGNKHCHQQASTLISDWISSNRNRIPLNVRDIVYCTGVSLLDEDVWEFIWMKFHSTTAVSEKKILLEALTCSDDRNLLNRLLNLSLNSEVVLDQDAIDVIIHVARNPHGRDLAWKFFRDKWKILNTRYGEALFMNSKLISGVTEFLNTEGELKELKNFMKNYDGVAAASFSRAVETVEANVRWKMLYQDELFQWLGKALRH
Experiment: TRH-DE inhibition test (RapidFire MS measurement of product Cyclo (His-Pro))
Type: biochemical
Settings: membrane fraction of Expi 293 cells expressing human TRH-DE; 10 μM TRH substrate; room temperature, 2 hours; 16-point concentration test
Summary of the method: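 Inhibition derived from product/internal-standard ratios of Cyclo(His-Pro), quantified by RapidFire triple-quadrupole MS after acetonitrile:methanol quench, with IC50 fitted over 16 concentrations. Enzyme source: membranes of Expi 293 cells transiently expressing human TRH-DE, 4 μg/ml, pH 7.4 phosphate buffer. Incubation with 10 μM substrate ran 2 h at room temperature.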

| SMILES | IC50 |
| --- | --- |
| CC1CCCC(=O)N1C1CC2(C1)CN(S(=O)(=O)c1ccccc1F)C2 (racemic) [Example 440, 1-[2-(2-fluorophenyl)sulfonyl-2-azaspiro[3.3]heptan-6-yl]-6-methylpiperidin-2-one] | 0.199 µM |
| C[C@@H]1COc2ccc(Cl)nc2C(=O)N1C1CC2(C1)CN(S(=O)(=O)c1ccccc1F)C2 [Example 12] | 0.009 µM |
| CCC1c2ccccc2C(=O)N1C1CC2(C1)CN(S(=O)(=O)c1ccccc1F)C2 (racemic) [Example 271] | 0.024 µM |
| C[C@@H]1COc2c(noc2Br)C(=O)N1C1CC2(C1)CN(S(=O)(=O)c1ccccc1F)C2 [Example 297, (6R)-3-bromo-7-[2-(2-fluorophenyl)sulfonyl-2-azaspiro[3.3]heptan-6-yl]-6-methyl-5,6-dihydroisoxazolo[3,4-f][1,4]oxazepin-8-one] | 0.018 µM |
| C[C@@H]1CCn2nc(Cl)cc2C(=O)N1C1CC2(C1)CN(S(=O)(=O)c1ccccc1F)C2 [Example 186] | 0.021 µM |
| CC1CC(F)(F)c2ncccc2C(=O)N1C1CC2(C1)CN(S(=O)(=O)c1ccccc1F)C2 (centres unmarked) [Example 300, 9,9-Difluoro-6-[2-(2-fluorophenyl)sulfonyl-2-azaspiro[3.3]heptan-6-yl]-7-methyl-7,8-dihydropyrido[3,2-c]azepin-5-one] | 0.168 µM |
| CCn1ncc2c1OC[C@@H](C)N(C1CC3(C1)CN(S(=O)(=O)c1ccccc1F)C3)C2=O [Example 199] | 0.021 µM |
| Cc1cnc2c(c1)C(C)N(C1CC3(C1)CN(S(=O)(=O)c1ccccc1F)C3)C2=O (racemic) [Example 293] | 0.121 µM |
| CC1CCCNC(=O)N1C1CC2(C1)CN(S(=O)(=O)c1ccccc1F)C2 (centres unmarked) [Example 432, 1-[2-(2-fluorophenyl)sulfonyl-2-azaspiro[3.3]heptan-6-yl]-7-methyl-1,3-diazepan-2-one] | 0.344 µM |
| C[C@@H]1COc2nc(N3CCC4(CCOC4)C3)ncc2C(=O)N1C1CC2(C1)CN(S(=O)(=O)c1ccccc1F)C2 (mixture of isomers) [Example 405] | 0.003 µM |
| C[C@@H]1Cn2cnc(Br)c2C(=O)N1C1CC2(C1)CN(S(=O)(=O)c1ccccc1F)C2 [Example 233] | 0.031 µM |
| CC1c2cc(F)cnc2C(=O)N1C1CC2(C1)CN(S(=O)(=O)c1ccccc1F)C2 (racemic) [Example 292] | 0.154 µM |
| C[C@@H]1COc2c(cnn2C2CC2)C(=O)N1C1CC2(C1)CN(S(=O)(=O)c1ccccc1F)C2 [Example 202] | 0.019 µM |
| C[C@@H]1CCc2oc(C3CC3)nc2C(=O)N1C1CC2(C1)CN(S(=O)(=O)c1ccccc1F)C2 [Example 101] | 0.014 µM |
| CC1C=Cc2nc(C(F)(F)F)sc2C(=O)N1C1CC2(C1)CN(S(=O)(=O)c1ccccc1F)C2 (racemic) [Example 118] | 0.025 µM |
| CCC1c2ccccc2C(=O)N1C1CC2(C1)CN(S(=O)(=O)c1ccccc1)C2 (racemic) [Example 268] | 0.108 µM |
| CC1CCC2CC2C(=O)N1C1CC2(C1)CN(S(=O)(=O)c1ccccc1F)C2 (racemic) [Example 107] | 0.018 µM |
| CCN1C[C@@H](C)N(C2CC3(C2)CN(S(=O)(=O)c2ccccc2F)C3)C(=O)c2ncccc21 [Example 245, (3R)-1-ethyl-4-[2-(2-fluorophenyl)sulfonyl-2-azaspiro[3.3]heptan-6-yl]-3-methyl-2,3-dihydropyrido[3,2-e][1,4]diazepin-5-one] | 0.002 µM |
| C[C@@H]1C=Cc2nc(C3(F)CC3)sc2C(=O)N1C1CC2(C1)CN(S(=O)(=O)c1ccccc1F)C2 [Example 121] | 0.021 µM |
| CC1COc2nc(C3CC3)sc2C(=O)N1C1CC2(C1)CN(S(=O)(=O)c1ccccc1F)C2 (racemic) [Example 179] | 0.007 µM |
| C[C@@H]1CCN(C(=O)c2cccs2)CC(=O)N1C1CC2(C1)CN(S(=O)(=O)c1ccccc1F)C2 [Example 450] | 0.081 µM |
| CCCCN(C)c1cc2c(cn1)C(=O)N(C1CC3(C1)CN(S(=O)(=O)c1ccccc1F)C3)[C@H](C)CO2 [Example 135] | 0.001 µM |
| CC1C2C(c3nc(C4CC4)sc3C(=O)N1C1CC3(C1)CN(S(=O)(=O)c1ccccc1F)C3)C2(F)F (stereo not drawn) [Example 133, (2R*,4S*,5R*)-10-cyclopropyl-3,3-difluoro-6-[2-(2-fluorophenyl)sulfonyl-2-azaspiro[3.3]heptan-6-yl]-5-methyl-9-thia-6,11-diazatricyclo[6.3.0.02.4]undec-1(8),10-dien-7-one] | 0.004 µM |
| C[C@@H]1CCn2c(cnc2C2CC2)C(=O)N1C1CC2(C1)CN(S(=O)(=O)c1ccccc1F)C2 [Example 322] | 0.007 µM |

| SMILES | IC50 |
| --- | --- |
| C[C@@H]1COc2nc(N3CC4(CCOC4)C3)ncc2C(=O)N1C1CC2(C1)CN(S(=O)(=O)c1ccccc1F)C2 [Example 408] | 0.004 µM |
| C[C@@H]1CNC(=O)N1C1CC2(C1)CN(S(=O)(=O)c1ccccc1F)C2 [Example 435, (5R)-1-[2-(2-fluorophenyl)sulfonyl-2-azaspiro[3.3]heptan-6-yl]-5-methylimidazolidin-2-one] | 0.492 µM |
| CC1(O)c2cnccc2C(=O)N1C1CC2(C1)CN(S(=O)(=O)c1ccccc1F)C2 (racemic) [Example 282] | 0.124 µM |
| CC1C=C(F)c2ncccc2C(=O)N1C1CC2(C1)CN(S(=O)(=O)c1ccccc1F)C2 (centres unmarked) [Example 301, 9-fluoro-6-[2-(2-fluorophenyl)sulfonyl-2-azaspiro[3.3]heptan-6-yl]-7-methyl-7H-pyrido[3,2-c]azepin-5-one] | 0.091 µM |
| CC1C=Cc2cc(C(F)(F)F)cnc2C(=O)N1C1CC2(C1)CN(S(=O)(=O)c1ccccc1F)C2 (racemic) [Example 112] | 0.032 µM |
| CC1(O)c2ccccc2C(=O)N1C1CC2(C1)CN(S(=O)(=O)c1ccccc1)C2 (racemic) [Example 284] | 0.537 µM |
| C[C@@H]1COc2ccc(C(F)(F)F)nc2C(=O)N1C1CC2(C1)CN(S(=O)(=O)c1ccccc1F)C2 [Example 17] | 0.008 µM |
| CCC1(O)c2ccccc2C(=O)N1C1CC2(C1)CN(S(=O)(=O)c1cc(C)ccc1F)C2 (racemic) [Example 288] | 0.336 µM |
| C[C@@H]1COc2nc(C3CC3)sc2C(=O)N1C1CC2(C1)CN(S(=O)(=O)c1ccccc1F)C2 [Example 180] | 0.004 µM |
| C[C@@H]1COc2ncc(Cl)cc2C(=O)N1C1CC2(C1)CN(S(=O)(=O)c1ccccc1F)C2 [Example 32] | 0.003 µM |
| C[C@@H]1CCn2nc(C3(F)CC3)cc2C(=O)N1C1CC2(C1)CN(S(=O)(=O)c1ccccc1F)C2 [Example 190] | 0.011 µM |
| C[C@@H]1CN(C)c2nc(C(F)(F)F)ccc2C(=O)N1C1CC2(C1)CN(S(=O)(=O)c1ccccc1F)C2 [Example 247, (3R)-4-[2-(2-fluorophenyl)sulfonyl-2-azaspiro[3.3]heptan-6-yl]-1,3-dimethyl-8-(trifluoromethyl)-2,3-dihydropyrido[2,3-e][1,4]diazepin-5-one] | 0.002 µM |
| CC1CCC(=O)N(C2CC3(C2)CN(S(=O)(=O)c2ccccc2F)C3)C(C)C1 (racemic) [Example 438] | 0.126 µM |
| C[C@@H]1COc2ncc(C(F)(F)F)cc2C(=O)N1C1CC2(C1)CN(S(=O)(=O)c1ccccc1F)C2 [Example 33] | 0.015 µM |
| C[C@@H]1COc2nc(F)ccc2C(=O)N1C1CC2(C1)CN(S(=O)(=O)c1ccccc1F)C2 [Example 42] | 0.009 µM |
| Cc1ccc2c(n1)OCC(C)N(C1CC3(C1)CN(S(=O)(=O)c1ccccc1F)C3)C2=O (racemic) [Example 31] | 0.009 µM |
| C[C@@H]1CCN2CCC[C@H]2C(=O)N1C1CC2(C1)CN(S(=O)(=O)c1ccccc1F)C2 [Example 222] | 0.449 µM |
| CC(=O)c1cnc2c(c1)OC[C@@H](C)N(C1CC3(C1)CN(S(=O)(=O)c1ccccc1F)C3)C2=O [Example 336] | 0.002 µM |
| CCCN(C(=O)c1cccnc1NC1CC1)C1CC2(C1)CN(S(=O)(=O)c1cc(C)ccc1F)C2 [Example 429] | 0.014 µM |
| Cc1nc(Br)n2c1C(=O)N(C1CC3(C1)CN(S(=O)(=O)c1ccccc1F)C3)[C@H](C)CC2 [Example 216] | 0.046 µM |
| C[C@@H]1CCc2nc([C@@H]3C[C@@H]3F)sc2C(=O)N1C1CC2(C1)CN(S(=O)(=O)c1ccccc1F)C2 [Example 96] | 0.002 µM |
| C[C@@H]1CCN(C2CCOCC2)CC(=O)N1C1CC2(C1)CN(S(=O)(=O)c1ccccc1F)C2 [Example 447] | 0.403 µM |
| CC1CCc2nc(C3CC3)oc2C(=O)N1C1CC2(C1)CN(S(=O)(=O)c1ccccc1F)C2 (racemic) [Example 102] | 0.006 µM |
